Data from ChEMBL document CHEMBL2396595, “New eudesmane sesquiterpenes from Alpinia oxyphylla and determination of their inhibitory effects on microglia” (Bioorg Med Chem Lett, 2013).
Active and inactive are the calls of the source. The calls are words filed in the database; no cut-off is given here.

Tested on: BV-2
Test: Neuroprotective activity in mouse BV2 cells assessed as inhibition of LPS-induced nitric oxide production at maximum non-toxic concentration treated 1 hr before LPS addition measured after 24 hrs by colorimetric analysis
Format: functional, cell-based

Structure (SMILES)	inhibition
C=C(C)[C@]1(O)CC[C@]2(C)CC(=O)C=C(C)[C@H]2C1	inactive
CC(=O)[C@H]1CC[C@@]2(C)CC(=O)C=C(C)[C@@]2(O)C1	inactive
CC(=O)C1=CC2=C(C)C(=O)CC[C@@]2(C)CC1	inactive
CC1=CC(=O)C[C@@]2(C)C[C@H]3OC(=O)C(C)=C3C[C@H]12	inactive
C=C(C)[C@@H]1CC(=O)C2=CC(=O)C[C@@H](C)[C@]2(C)C1	Active
Cc1ccc2c(c1O)[C@H](C(C)C)CCC2=O	Active
Cc1ccc2c(c1)[C@H](C(C)C)CCC2=O [(4S)-10-NOR-CALAMENEN-10-ONE]	inactive
C[C@@H]1CC(=O)C=C2CC[C@@H]([C@](C)(O)CO)C[C@]21C [(11S)-NOOTKATONE-11,12-DIOL]	inactive
C=C(C)[C@@H]1CCC2=C[C@@H](O)C[C@@H](C)[C@]2(C)C1 [BETA-NOOTKATOL]	Active
C=C(C)[C@@H]1CCC2=CC(=O)C[C@@H](C)[C@]2(C)C1 [NOOTKATONE]	inactive
CC1=C2C=C(C(C)(O)CO)CC[C@]2(C)CCC1=O (stereo not given in full) [OXYPHYLLANENE F]	inactive
CC(C)[C@@H]1CCC(=O)C2=C1[C@H](O)[C@](C)(O)CC2 [OXYPHYLLENODIOL A]	inactive
CC(C)[C@H]1CCC(=O)C2=C1[C@H](O)[C@](C)(O)CC2 [OXYPHYLLENODIOL B]	Active
C[C@@]12CCC(=O)C=C1[C@@](C)(O)[C@H](O)CC2 [OXYPHYLLENONE A]	inactive
C[C@@]12CCC(=O)C=C1[C@](C)(O)[C@H](O)CC2 [OXYPHYLLENONE B]	inactive

Tested on: BV-2
Test: Neuroprotective activity in mouse BV2 cells assessed as increase of LPS-induced TNFalpha production at maximum non-toxic concentration treated 1 hr before LPS addition measured after 24 hrs by ELISA
Format: functional, cell-based

Structure (SMILES)	Activity
C=C(C)[C@]1(O)CC[C@]2(C)CC(=O)C=C(C)[C@H]2C1	Active
C=C(C)[C@@H]1CC(=O)C2=CC(=O)C[C@@H](C)[C@]2(C)C1	Active
C=C(C)[C@@H]1CCC2=CC(=O)C[C@@H](C)[C@]2(C)C1 [NOOTKATONE]	Active

Tested on: not listed separately
Test: Cytotoxicity against mouse BV2 cells assessed as maximum non-toxic concentration after 24 hrs by MTT assay
Format: cell-based, BV-2

Structure (SMILES)	MNTC at 24 h
C=C(C)[C@]1(O)CC[C@]2(C)CC(=O)C=C(C)[C@H]2C1	0.1 µM
CC(=O)[C@H]1CC[C@@]2(C)CC(=O)C=C(C)[C@@]2(O)C1	100 µM
CC(=O)C1=CC2=C(C)C(=O)CC[C@@]2(C)CC1	100 µM
CC1=CC(=O)C[C@@]2(C)C[C@H]3OC(=O)C(C)=C3C[C@H]12	100 µM
C=C(C)[C@@H]1CC(=O)C2=CC(=O)C[C@@H](C)[C@]2(C)C1	0.1 µM
Cc1ccc2c(c1O)[C@H](C(C)C)CCC2=O	100 µM
Cc1ccc2c(c1)[C@H](C(C)C)CCC2=O [(4S)-10-NOR-CALAMENEN-10-ONE]	0.1 µM
C[C@@H]1CC(=O)C=C2CC[C@@H]([C@](C)(O)CO)C[C@]21C [(11S)-NOOTKATONE-11,12-DIOL]	30 µM
C=C(C)[C@@H]1CCC2=C[C@@H](O)C[C@@H](C)[C@]2(C)C1 [BETA-NOOTKATOL]	30 µM
COc1ccc2c(c1)c(CC(=O)O)c(C)n2C(=O)c1ccc(Cl)cc1 [INDOMETHACIN]	10 µM
C=C(C)[C@@H]1CCC2=CC(=O)C[C@@H](C)[C@]2(C)C1 [NOOTKATONE]	0.1 µM
CC1=C2C=C(C(C)(O)CO)CC[C@]2(C)CCC1=O (stereo not given in full) [OXYPHYLLANENE F]	0.1 µM
CC(C)[C@@H]1CCC(=O)C2=C1[C@H](O)[C@](C)(O)CC2 [OXYPHYLLENODIOL A]	100 µM
CC(C)[C@H]1CCC(=O)C2=C1[C@H](O)[C@](C)(O)CC2 [OXYPHYLLENODIOL B]	1 µM
C[C@@]12CCC(=O)C=C1[C@@](C)(O)[C@H](O)CC2 [OXYPHYLLENONE A]	100 µM
C[C@@]12CCC(=O)C=C1[C@](C)(O)[C@H](O)CC2 [OXYPHYLLENONE B]	10 µM
N=C(N)NN [PIMAGEDINE]	1000 µM

Tested on: BV-2
Test: Neuroprotective activity in mouse BV2 cells assessed as increase of LPS-induced nitric oxide production at maximum non-toxic concentration treated 1 hr before LPS addition measured after 24 hrs by colorimetric analysis
Format: functional, cell-based

Structure (SMILES)	Activity
CC(=O)[C@H]1CC[C@@]2(C)CC(=O)C=C(C)[C@@]2(O)C1	Active
CC(=O)C1=CC2=C(C)C(=O)CC[C@@]2(C)CC1	Active
CC1=CC(=O)C[C@@]2(C)C[C@H]3OC(=O)C(C)=C3C[C@H]12	Active
Cc1ccc2c(c1)[C@H](C(C)C)CCC2=O [(4S)-10-NOR-CALAMENEN-10-ONE]	Active

Tested on: BV-2
Test: Neuroprotective activity in mouse BV2 cells assessed as inhibition of LPS-induced TNFalpha production at maximum non-toxic concentration treated 1 hr before LPS addition measured after 24 hrs by ELISA
Format: functional, cell-based

Structure (SMILES)	inhibition
C[C@@]12CCC(=O)C=C1[C@@](C)(O)[C@H](O)CC2 [OXYPHYLLENONE A]	Active
